Test results taken from ChEMBL document CHEMBL6127100, “Plant based steroidal and triterpenoid sapogenins: Chemistry on diosgenin and biological aspects” (Eur J Med Chem, 2024).

Key:
Type in all cases: functional, cell-based
HepG2 = assay: Antiproliferative activity against human HepG2 cells assessed as reduction in cell viability measured for 24 hrs by MTT assay; conditions: HepG2, 24 h
HeLa = assay: Antiproliferative activity against human HeLa cells assessed as reduction in cell viability measured for 24 hrs by MTT assay
A549 = assay: Antiproliferative activity against human A549 cells assessed as reduction in cells assessed as reduction in cell growth incubated for 72 hrs by MTT assay; conditions: A549, 72 h
ASPC1 = assay: Antiproliferative activity against human ASPC1 cells assessed as reduction in cells assessed as reduction in cell growth incubated for 72 hrs by MTT assay; conditions: ASPC1, 72 h
NCI-H1975 = assay: Antiproliferative activity against human NCI-H1975 cells assessed as reduction in cells assessed as reduction in cell growth incubated for 72 hrs by MTT assay; conditions: NCI-H1975, 72 h
A-431 = assay: Antiproliferative activity against human A-431 cells assessed as reduction in cells assessed as reduction in cell growth incubated for 72 hrs by MTT assay; conditions: A-431, 72 h
HCT-116 = assay: Antiproliferative activity against human HCT-116 cells assessed as reduction in cells assessed as reduction in cell growth incubated for 72 hrs by MTT assay; conditions: HCT-116, 72 h

Structure (SMILES) | IC50 (HepG2) | IC50 (HeLa) | IC50 (A549) | IC50 (ASPC1) | IC50 (NCI-H1975) | IC50 (A-431) | IC50 (HCT-116)
C[C@@H](CO)CC[C@H]1O[C@H]2C[C@H]3[C@@H]4CC=C5C[C@@H](OC6=C(Cl)C(=O)c7ccccc7C6=O)CC[C@]5(C)[C@H]4CC[C@]3(C)[C@H]2[C@@H]1C | 3.85 µM | 3.7 µM | – | – | – | – | –
C=CC[N+](CC=C)(CC=C)CCCCC(=O)O[C@H]1CC[C@@]2(C)C(=CC[C@H]3[C@@H]4C[C@@H]5O[C@]6(CC[C@@H](C)CO6)[C@@H](C)[C@@H]5[C@@]4(C)CC[C@@H]32)C1 | – | – | 1.84 µM | 1.23 µM | 0.78 µM | 2.55 µM | –
C[C@H](CC[C@H]1O[C@H]2C[C@H]3[C@@H]4CC=C5C[C@@H](OC6=C(Cl)C(=O)c7ccccc7C6=O)CC[C@]5(C)[C@H]4CC[C@]3(C)[C@H]2[C@@H]1C)CO[Si](C)(C)C(C)(C)C | 3.52 µM | 9.69 µM | – | – | – | – | –
C[C@@H]1CC[C@@]2(OC1)O[C@H]1C[C@H]3[C@@H]4CC=C5C[C@@H](OC(=O)CCCC[N+](C)(C)c6ccccc6)CC[C@]5(C)[C@H]4CC[C@]3(C)[C@H]1[C@@H]2C | – | – | 6.63 µM | 4.18 µM | 4.05 µM | 3.52 µM | –
C[C@@H]1CC[C@@]2(OC1)O[C@H]1C[C@H]3[C@@H]4CC=C5C[C@@H]([N+](C)(C)CC#N)CC[C@]5(C)[C@H]4CC[C@]3(C)[C@H]1[C@@H]2C | – | – | – | 19.3 µM | 20.6 µM | 8.25 µM | 9.74 µM
C[C@@H]1CC[C@@]2(OC1)O[C@H]1C[C@H]3[C@@H]4CC=C5C[C@@H]([N+](C)(C/C=C/c6ccccc6)C/C=C/c6ccccc6)CC[C@]5(C)[C@H]4CC[C@]3(C)[C@H]1[C@@H]2C | – | – | 9.86 µM | < 5 µM | 5.73 µM | < 2.5 µM | 0.34 µM
Cc1ccc2c(c1)C(=O)C(Cl)=C(OC[C@H](C)CC[C@H]1O[C@H]3C[C@H]4[C@@H]5CC=C6C[C@@H](OC7=C(Cl)C(=O)c8cc(C)ccc8C7=O)CC[C@]6(C)[C@H]5CC[C@]4(C)[C@H]3[C@@H]1C)C2=O | 9.18 µM | 14.5 µM | – | – | – | – | –
Cc1ccc2c(n1)C(=O)C(Cl)=C(O[C@H]1CC[C@@]3(C)C(=CC[C@H]4[C@@H]5C[C@@H]6O[C@H](CC[C@@H](C)CO[Si](C)(C)C(C)(C)C)[C@@H](C)[C@@H]6[C@@]5(C)CC[C@@H]43)C1)C2=O | 3.55 µM | 9.69 µM | – | – | – | – | –
C[C@@H]1CC[C@@]2(OC1)O[C@H]1C[C@H]3[C@@H]4CC=C5C[C@@H]([N+](C)(CC6CC6)CC6CC6)CC[C@]5(C)[C@H]4CC[C@]3(C)[C@H]1[C@@H]2C | – | – | 2.69 µM | 4.07 µM | 5.32 µM | 4.71 µM | 1.12 µM
C[C@@H]1CC[C@@]2(OC1)O[C@H]1C[C@H]3[C@@H]4CC=C5C[C@@H](OC(=O)CCCC[N+]6(CCO)CCCCC6)CC[C@]5(C)[C@H]4CC[C@]3(C)[C@H]1[C@@H]2C | – | – | 4.68 µM | 6.07 µM | 1.68 µM | 4.14 µM | –
C[C@@H]1CC[C@@]2(OC1)O[C@H]1C[C@H]3[C@@H]4CC=C5C[C@@H](OC(=O)CCCC[N+]6(C)CCCC6)CC[C@]5(C)[C@H]4CC[C@]3(C)[C@H]1[C@@H]2C | – | – | 4.47 µM | 2.15 µM | 3.44 µM | 4.05 µM | –
C=C[N+](C)(C=C)[C@H]1CC[C@@]2(C)C(=CC[C@H]3[C@@H]4C[C@@H]5O[C@]6(CC[C@@H](C)CO6)[C@@H](C)[C@@H]5[C@@]4(C)CC[C@@H]32)C1 | – | – | 6.64 µM | 4.06 µM | 5.96 µM | 4.01 µM | 5 µM
C[C@@H]1CC[C@@]2(OC1)O[C@H]1C[C@H]3[C@@H]4CC=C5C[C@@H](OC(=O)CCCC[N+](C)(C)Cc6ccccc6)CC[C@]5(C)[C@H]4CC[C@]3(C)[C@H]1[C@@H]2C | – | – | 5.3 µM | 7.12 µM | 1.51 µM | 1.85 µM | –
C[C@@H]1CC[C@@]2(OC1)O[C@H]1C[C@H]3[C@@H]4CC=C5C[C@@H]([N+](C)(CCO)CCO)CC[C@]5(C)[C@H]4CC[C@]3(C)[C@H]1[C@@H]2C | – | – | 5.35 µM | 17.8 µM | – | 3.26 µM | 11.5 µM
C[C@@H]1CC[C@@]2(OC1)O[C@H]1C[C@H]3[C@@H]4CC=C5C[C@@H](OC(=O)CCCC[N+]6(CCO)CCOCC6)CC[C@]5(C)[C@H]4CC[C@]3(C)[C@H]1[C@@H]2C | – | – | 12.6 µM | 11.1 µM | 3.36 µM | 6.21 µM | –
C[C@@H]1CC[C@@]2(OC1)O[C@H]1C[C@H]3[C@@H]4CC=C5C[C@@H](OC(=O)CCCC[N+]67CCC(CC6)C(O)C7)CC[C@]5(C)[C@H]4CC[C@]3(C)[C@H]1[C@@H]2C (some centres not stated) | – | – | 4.07 µM | 4.46 µM | 1.68 µM | 4.14 µM | –
C[C@@H]1CC[C@@]2(OC1)O[C@H]1C[C@H]3[C@@H]4CC=C5C[C@@H]([N+](C)(C)C)CC[C@]5(C)[C@H]4CC[C@]3(C)[C@H]1[C@@H]2C | – | – | 15.2 µM | 9.44 µM | 19 µM | 6.38 µM | 9.67 µM

The remaining lines, values ahead:

IC50 (HepG2) | IC50 (HeLa) | IC50 (A549) | IC50 (ASPC1) | IC50 (NCI-H1975) | IC50 (A-431) | IC50 (HCT-116) | Structure (SMILES)
5.36 µM | 15.6 µM | – | – | – | – | – | Cc1ccc2c(n1)C(=O)C(Cl)=C(O[C@H]1CC[C@@]3(C)C(=CC[C@H]4[C@@H]5C[C@@H]6O[C@H](CC[C@@H](C)CO)[C@@H](C)[C@@H]6[C@@]5(C)CC[C@@H]43)C1)C2=O
12.2 µM | 12.4 µM | – | – | – | – | – | C[C@H](CC[C@H]1O[C@H]2C[C@H]3[C@@H]4CC=C5C[C@@H](OC6=C(Cl)C(=O)c7ncccc7C6=O)CC[C@]5(C)[C@H]4CC[C@]3(C)[C@H]2[C@@H]1C)CO[Si](C)(C)C(C)(C)C
– | – | 2.81 µM | 2.77 µM | 3.68 µM | 3.11 µM | – | CCCC[N+](C)(C)CCCCC(=O)O[C@H]1CC[C@@]2(C)C(=CC[C@H]3[C@@H]4C[C@@H]5O[C@]6(CC[C@@H](C)CO6)[C@@H](C)[C@@H]5[C@@]4(C)CC[C@@H]32)C1
– | – | 2.52 µM | 6.56 µM | 3.23 µM | 3.46 µM | – | CC[N+](CC)(CC)CCCCC(=O)O[C@H]1CC[C@@]2(C)C(=CC[C@H]3[C@@H]4C[C@@H]5O[C@]6(CC[C@@H](C)CO6)[C@@H](C)[C@@H]5[C@@]4(C)CC[C@@H]32)C1
– | – | 5.83 µM | 8.48 µM | 5.45 µM | 5.88 µM | – | C[C@@H]1CC[C@@]2(OC1)O[C@H]1C[C@H]3[C@@H]4CC=C5C[C@@H](OC(=O)CCCC[N+]6(C)CCOCC6)CC[C@]5(C)[C@H]4CC[C@]3(C)[C@H]1[C@@H]2C
– | 6.36 µM | – | – | – | – | – | C[C@@H](CO)CC[C@H]1O[C@H]2C[C@H]3[C@@H]4CC=C5C[C@@H](OC6=C(Cl)C(=O)c7ncccc7C6=O)CC[C@]5(C)[C@H]4CC[C@]3(C)[C@H]2[C@@H]1C
– | – | 10.5 µM | 5.54 µM | 11.2 µM | 10.4 µM | 3.94 µM | C[C@@H]1CC[C@@]2(OC1)O[C@H]1C[C@H]3[C@@H]4CC=C5C[C@@H]([N+]6(C)CCCC6)CC[C@]5(C)[C@H]4CC[C@]3(C)[C@H]1[C@@H]2C
– | – | 6.33 µM | 55.3 µM | 5.09 µM | 2.85 µM | > 1 µM | COCC[N+](C)(CCOC)[C@H]1CC[C@@]2(C)C(=CC[C@H]3[C@@H]4C[C@@H]5O[C@]6(CC[C@@H](C)CO6)[C@@H](C)[C@@H]5[C@@]4(C)CC[C@@H]32)C1
– | – | 10.7 µM | 4.78 µM | 9.17 µM | 4.33 µM | 3.23 µM | C[C@@H]1CC[C@@]2(OC1)O[C@H]1C[C@H]3[C@@H]4CC=C5C[C@@H]([N+](C)(CCCCN6C(=O)c7ccccc7C6=O)CCCCN6C(=O)c7ccccc7C6=O)CC[C@]5(C)[C@H]4CC[C@]3(C)[C@H]1[C@@H]2C
– | – | 12.7 µM | 4.41 µM | 5.92 µM | 14.5 µM | 4.71 µM | C#CC[N+](C)(CC#C)[C@H]1CC[C@@]2(C)C(=CC[C@H]3[C@@H]4C[C@@H]5O[C@]6(CC[C@@H](C)CO6)[C@@H](C)[C@@H]5[C@@]4(C)CC[C@@H]32)C1
– | – | 2.42 µM | < 5 µM | 6.39 µM | 3.87 µM | 1.03 µM | CCCC[N+](C)(CCCC)[C@H]1CC[C@@]2(C)C(=CC[C@H]3[C@@H]4C[C@@H]5O[C@]6(CC[C@@H](C)CO6)[C@@H](C)[C@@H]5[C@@]4(C)CC[C@@H]32)C1
– | – | 5.83 µM | 2.83 µM | 5.08 µM | 3.03 µM | – | C[C@@H]1CC[C@@]2(OC1)O[C@H]1C[C@H]3[C@@H]4CC=C5C[C@@H](OC(=O)CCCC[N+]6(C)CCCCC6)CC[C@]5(C)[C@H]4CC[C@]3(C)[C@H]1[C@@H]2C
1.76 µM | 6.27 µM | – | – | – | – | – | C[C@H](CC[C@H]1O[C@H]2C[C@H]3[C@@H]4CC=C5C[C@@H](OC6=C(Cl)C(=O)c7ccccc7C6=O)CC[C@]5(C)[C@H]4CC[C@]3(C)[C@H]2[C@@H]1C)COC1=C(Cl)C(=O)c2ccccc2C1=O
